Data from PMC6274539, “Photoactivatable Caged Prodrugs of VEGFR-2 Kinase Inhibitors” (Molecules, 2016).

Assays:
VEGFR-2 = target: T1, VEGFR-2 (Homo sapiens, UniProt P35968); test: radiometric 33PanQinase VEGFR-2 kinase assay (ProQinase); type: biochemical; settings: 10 semi-log concentrations, single samples, 1% DMSO
T1 construct: determined using VEGFR-2 protein kinase by a radiometric ^33PanQinase® assay; purchased ProQinase (Freiburg, Germany)
Procedure: As predicted by molecular modeling, insertion of the protecting group DMNB should diminish the inhibitory activity both of the maleimide 1 and the carbazole 3. […] The IC50 values towards VEGFR-2 were determined (Table 1).
The VEGFR-2 IC50 profile for 1, 3, 4 and 5 was determined using VEGFR-2 protein kinase by a radiometric ^33PanQinase® assay. […] Prior to testing, the compounds were dissolved to prepare 1 × 10^−2 M stock solutions in 100% DMSO. The final DMSO concentration in the reaction cocktails was 1% in all cases. Analyses were performed by ProQinase (Freiburg, Germany).

MST4 = MST4 (Homo sapiens, UniProt Q9P289); test: kinase profiling, radioactive filter binding assay; type: biochemical; settings: 0.1 µM compound, assay duplicates; read-out: residual activity of MST4, mean percentage activity
Procedure, shortened: (§1)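 Read-out is percentage residual kinase activity, averaged over duplicates with standard deviation, from a radioactive filter binding assay using 33P-labelled ATP. Test substances were applied at 0.1 µM, dissolved in DMSO.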

P38b MAPK = P38b MAPK (Homo sapiens, UniProt Q15759); test: kinase profiling, radioactive filter binding assay; type: biochemical; settings: 0.1 µM compound, assay duplicates; read-out: residual activity of P38b MAPK, mean percentage activity
Procedure, shortened: as §1

PAK5 = PAK5 (Homo sapiens, UniProt Q9P286); test: kinase profiling, radioactive filter binding assay; type: biochemical; settings: 0.1 µM compound, assay duplicates; read-out: residual activity of PAK5, mean percentage activity
Procedure, shortened: as §1

IR-HIS = IR-HIS (Homo sapiens, UniProt P06213); test: kinase profiling, radioactive filter binding assay; type: biochemical; settings: 0.1 µM compound, assay duplicates; read-out: residual activity of IR-HIS, mean percentage activity
Procedure, shortened: as §1

[1] = UV stability at 365 nm in DMSO (HPLC, LC-MS); settings: 1 mM in DMSO, 5.4 W, up to 10 min
Procedure: HPLC and LC-MS analysis were used for content determination.
Aliquots were diluted 1:10 with methanol and analyzed by HPLC.

PC-3 cells = test: cellular uptake by fluorescence microscopy (cell staining); type: cell-based; settings: live PC-3 cells, 10 µM, 30 min, autofluorescence
Procedure: Next, we investigated the cellular bioavailability of the caged prodrugs. For this purpose, we used the autofluorescence of the carbazole 3 and its caged derivative 5. The emission spectra of both compounds are shown in the Supplementary Figure S6. The fluorescence microscopy was used to explore the uptake of the compounds into the cells. Live PC-3 cells were stained with 10 µM solutions of 3 or 5, and then fixed with formalin. Subsequently, the cell nuclei were counterstained with 1 µg/mL DAPI.
PC-3 cells were stained with the carbazole 3 and its caged derivative 5. For this purpose, the cells were seeded to give 15,000 cells in 50 µL per well into 96-well half area microplate (Ref.: 675986, Greiner bio-one, Kremsmünster, Austria). The plate was incubated for 48 h at 37 °C in a humidified atmosphere with 5% CO2. Compounds 3 and 5 were dissolved in DMEM:Hams F12 (1:1) medium with 5% FCS and added to the cells to give the endconcentration of 10 µM, respectively. The cells were incubated with the compounds for 30 min at 37 °C. After that, the cells were washed twice with PBS and fixed with 3.3% formalin for 15 min. […] After 30 min incubation at 37 °C, the cells were washed with PBS and the fluorescence images were taken at the ImageXpress® Micro XL (Molecular Devices, Sunnyvale CA, USA). […]

Chain of MST4 (Q9P289 whole entry): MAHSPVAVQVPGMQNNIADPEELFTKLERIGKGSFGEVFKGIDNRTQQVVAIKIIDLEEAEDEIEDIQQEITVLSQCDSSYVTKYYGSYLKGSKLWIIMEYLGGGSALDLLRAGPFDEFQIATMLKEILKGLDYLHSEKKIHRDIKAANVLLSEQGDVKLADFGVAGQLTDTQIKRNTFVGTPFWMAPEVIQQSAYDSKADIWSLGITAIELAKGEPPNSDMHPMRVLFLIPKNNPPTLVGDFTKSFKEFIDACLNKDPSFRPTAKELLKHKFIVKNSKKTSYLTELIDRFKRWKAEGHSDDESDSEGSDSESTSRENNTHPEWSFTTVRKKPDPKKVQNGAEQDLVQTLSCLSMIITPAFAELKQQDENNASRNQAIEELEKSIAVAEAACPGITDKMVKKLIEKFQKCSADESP
Chain of PAK5 (Q9P286 whole entry): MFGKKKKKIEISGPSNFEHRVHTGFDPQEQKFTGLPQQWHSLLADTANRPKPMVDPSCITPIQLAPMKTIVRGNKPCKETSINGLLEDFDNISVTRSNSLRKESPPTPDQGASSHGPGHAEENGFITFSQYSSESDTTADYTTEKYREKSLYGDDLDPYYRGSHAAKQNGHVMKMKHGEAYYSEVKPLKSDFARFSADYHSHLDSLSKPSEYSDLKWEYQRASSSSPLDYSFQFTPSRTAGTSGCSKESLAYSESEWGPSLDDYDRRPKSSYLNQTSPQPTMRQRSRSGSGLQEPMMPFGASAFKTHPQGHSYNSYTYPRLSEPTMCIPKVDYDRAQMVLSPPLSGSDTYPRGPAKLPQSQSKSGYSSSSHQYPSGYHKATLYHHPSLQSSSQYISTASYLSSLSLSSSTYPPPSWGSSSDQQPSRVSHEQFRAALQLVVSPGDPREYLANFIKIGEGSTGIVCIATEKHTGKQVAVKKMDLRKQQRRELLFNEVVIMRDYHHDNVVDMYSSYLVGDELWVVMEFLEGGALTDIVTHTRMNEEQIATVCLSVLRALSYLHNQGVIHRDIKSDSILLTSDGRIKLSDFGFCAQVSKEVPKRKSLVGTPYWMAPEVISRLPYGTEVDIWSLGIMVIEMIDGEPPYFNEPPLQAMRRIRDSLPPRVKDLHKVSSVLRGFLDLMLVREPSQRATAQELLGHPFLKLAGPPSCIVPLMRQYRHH
Chain of P38b MAPK (Q15759 whole entry): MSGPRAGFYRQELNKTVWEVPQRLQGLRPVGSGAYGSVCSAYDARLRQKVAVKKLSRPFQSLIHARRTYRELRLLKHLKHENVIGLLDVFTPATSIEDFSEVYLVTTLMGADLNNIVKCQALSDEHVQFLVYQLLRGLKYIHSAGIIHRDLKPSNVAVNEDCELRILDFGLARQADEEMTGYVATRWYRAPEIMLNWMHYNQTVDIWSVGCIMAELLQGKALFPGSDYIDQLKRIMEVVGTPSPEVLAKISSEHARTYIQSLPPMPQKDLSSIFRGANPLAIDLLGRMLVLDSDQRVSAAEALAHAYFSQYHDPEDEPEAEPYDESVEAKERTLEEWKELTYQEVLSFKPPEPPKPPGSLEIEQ
T1 sequence (P35968 20-1356): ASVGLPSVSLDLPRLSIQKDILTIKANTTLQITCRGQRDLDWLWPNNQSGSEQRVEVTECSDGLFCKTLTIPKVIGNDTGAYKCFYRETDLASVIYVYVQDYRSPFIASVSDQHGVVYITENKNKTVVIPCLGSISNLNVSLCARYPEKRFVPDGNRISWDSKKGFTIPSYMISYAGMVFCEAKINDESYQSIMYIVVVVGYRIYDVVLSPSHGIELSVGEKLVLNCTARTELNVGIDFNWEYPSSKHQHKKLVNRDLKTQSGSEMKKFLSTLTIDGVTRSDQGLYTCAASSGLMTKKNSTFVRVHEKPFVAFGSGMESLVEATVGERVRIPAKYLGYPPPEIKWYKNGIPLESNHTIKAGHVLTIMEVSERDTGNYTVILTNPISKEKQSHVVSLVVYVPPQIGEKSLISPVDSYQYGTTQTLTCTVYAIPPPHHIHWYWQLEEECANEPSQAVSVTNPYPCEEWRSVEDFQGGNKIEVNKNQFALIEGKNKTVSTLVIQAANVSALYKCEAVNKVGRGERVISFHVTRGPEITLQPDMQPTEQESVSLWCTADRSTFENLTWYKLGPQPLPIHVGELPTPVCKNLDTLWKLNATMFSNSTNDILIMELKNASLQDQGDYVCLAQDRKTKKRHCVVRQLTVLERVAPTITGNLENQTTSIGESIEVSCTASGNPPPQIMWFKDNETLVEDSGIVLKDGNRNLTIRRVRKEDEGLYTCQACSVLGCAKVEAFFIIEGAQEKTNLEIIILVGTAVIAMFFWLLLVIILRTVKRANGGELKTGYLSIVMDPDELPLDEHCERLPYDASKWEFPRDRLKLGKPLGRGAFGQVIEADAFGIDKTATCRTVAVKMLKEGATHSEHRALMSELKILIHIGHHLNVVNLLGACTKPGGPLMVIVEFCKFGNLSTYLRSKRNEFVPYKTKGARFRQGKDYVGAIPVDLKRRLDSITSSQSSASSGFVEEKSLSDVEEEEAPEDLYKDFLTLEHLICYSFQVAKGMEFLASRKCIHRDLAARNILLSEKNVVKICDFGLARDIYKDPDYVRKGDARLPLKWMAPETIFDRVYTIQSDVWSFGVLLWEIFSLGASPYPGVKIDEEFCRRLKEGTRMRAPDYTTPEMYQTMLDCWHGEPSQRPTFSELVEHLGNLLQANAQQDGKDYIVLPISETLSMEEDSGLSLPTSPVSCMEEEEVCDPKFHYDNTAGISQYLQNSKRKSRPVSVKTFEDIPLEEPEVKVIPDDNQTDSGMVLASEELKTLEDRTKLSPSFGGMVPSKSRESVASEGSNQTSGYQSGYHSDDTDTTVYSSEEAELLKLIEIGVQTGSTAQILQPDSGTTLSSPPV
Chain of IR-HIS (P06213 28-1382): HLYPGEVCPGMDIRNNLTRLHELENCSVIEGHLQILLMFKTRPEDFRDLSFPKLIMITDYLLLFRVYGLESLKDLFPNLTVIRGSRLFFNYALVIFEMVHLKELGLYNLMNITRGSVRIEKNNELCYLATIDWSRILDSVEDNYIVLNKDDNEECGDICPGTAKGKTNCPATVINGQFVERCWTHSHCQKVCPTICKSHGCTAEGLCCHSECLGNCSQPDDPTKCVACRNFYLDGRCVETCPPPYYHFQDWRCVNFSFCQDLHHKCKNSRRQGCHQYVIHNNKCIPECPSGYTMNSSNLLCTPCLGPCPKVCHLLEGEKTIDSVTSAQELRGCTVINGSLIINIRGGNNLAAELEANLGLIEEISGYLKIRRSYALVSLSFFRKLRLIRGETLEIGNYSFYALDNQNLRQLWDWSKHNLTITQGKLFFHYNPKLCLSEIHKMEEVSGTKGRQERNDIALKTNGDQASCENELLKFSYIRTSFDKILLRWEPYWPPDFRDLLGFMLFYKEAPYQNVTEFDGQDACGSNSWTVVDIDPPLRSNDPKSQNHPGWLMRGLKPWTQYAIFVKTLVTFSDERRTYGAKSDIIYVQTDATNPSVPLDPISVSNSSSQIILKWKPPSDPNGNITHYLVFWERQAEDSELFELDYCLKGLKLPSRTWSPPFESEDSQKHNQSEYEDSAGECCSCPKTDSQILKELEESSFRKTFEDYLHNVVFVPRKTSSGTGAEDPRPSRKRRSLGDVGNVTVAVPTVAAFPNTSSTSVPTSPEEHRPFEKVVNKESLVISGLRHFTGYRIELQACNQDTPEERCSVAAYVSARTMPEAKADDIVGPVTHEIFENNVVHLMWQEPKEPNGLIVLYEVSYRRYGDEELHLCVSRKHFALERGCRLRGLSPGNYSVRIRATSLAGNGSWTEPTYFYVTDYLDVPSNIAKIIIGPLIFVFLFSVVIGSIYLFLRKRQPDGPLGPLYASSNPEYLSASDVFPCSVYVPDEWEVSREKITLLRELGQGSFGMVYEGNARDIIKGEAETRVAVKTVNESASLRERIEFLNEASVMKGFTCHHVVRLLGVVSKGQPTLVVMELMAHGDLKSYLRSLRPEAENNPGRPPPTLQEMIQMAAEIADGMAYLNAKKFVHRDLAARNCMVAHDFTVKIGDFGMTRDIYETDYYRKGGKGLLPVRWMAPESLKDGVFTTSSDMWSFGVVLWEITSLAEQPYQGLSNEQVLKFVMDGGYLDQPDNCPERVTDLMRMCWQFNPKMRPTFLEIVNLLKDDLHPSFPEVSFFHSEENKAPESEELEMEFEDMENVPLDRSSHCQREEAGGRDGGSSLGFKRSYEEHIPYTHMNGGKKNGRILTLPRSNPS

Compound `COc1cc(C2=C(c3c[nH]c4ccccc34)C(=O)NC2=O)cc(OC)c1OC` [Compound 1, 3-(1H-Indol-3-yl)-4-(3,4,5-trimethoxyphenyl)-1H-pyrrole-2,5-dione] has an IC50 (VEGFR-2) of 5 nM, a remaining activity at 0.1 µM (MST4) of 94% and a remaining activity at 0.1 µM (P38b MAPK) of 86%. It also gave a remaining activity at 0.1 µM (PAK5) of 105%.

Work on `COc1cc2c3c(c4c5ccccc5[nH]c4c2c(OC)c1OC)C(=O)NC3=O` [Compound 3, 5,6,7-Trimethoxybenzo[a]pyrrolo[3,4-c]carbazole-1,3(2H,8H)-dione] yielded an IC50 (VEGFR-2) of 152 nM, a remaining activity at 0.1 µM (MST4) of 69% and a remaining activity at 0.1 µM (IR-HIS) of 88%. For the same compound, the remaining activity at 0.1 µM (P38b MAPK) was 89%, the remaining activity at 0.1 µM (PAK5) was 84% and the “UV stability under irradiation at 365 nm” value [1] was “quite stable”. The cellular uptake (PC-3 cells) was “taken up into the cells, but not within the cell nuclei” and the melting point was 275 °C.
